Reference: patent publication US9302999B2, “Substituted triazoles as herbicides” (E. I. DU PONT DE NEMOURS AND COMPANY, priority 2012, dated 2016)

Legend:
Format in all cases: in vivo
[1] = tested on: windgrass (Apera spica-venti); experiment: Test C postemergence: windgrass
Method in brief: (§1)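 Plants at the 1- to 4-leaf stage (2 to 18 cm tall), grown in pots of peat moss/vermiculite planting medium, received postemergence applications of the formulated test chemicals. After 13 to 15 days in a greenhouse, injury was scored visually versus controls from 0 (no effect) to 100 (complete control).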

[2] = tested on: goosegrass (Eleusine indica); experiment: Test C pre-/postemergence: goosegrass
Method in brief: (§2)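 Visual injury scored 0–100 (100 = complete control) against untreated controls after 13–15 greenhouse days. Surfactant-containing solvent formulations applied either to soil after sowing (loam/sand) or over 1- to 4-leaf plants, 2–18 cm tall.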

[3] = tested on: deadnettle (henbit deadnettle, Lamium amplexicaule); experiment: Test C postemergence: deadnettle
Method in brief: as §1

[4] = tested on: bromegrass, downy (downy bromegrass, Bromus tectorum); experiment: Test C pre-/postemergence: bromegrass, downy
Method in brief: as §2

[5] = tested on: foxtail, green (green foxtail, Setaria viridis); experiment: Test C pre-/postemergence: foxtail, green
Method in brief: as §2

[6] = tested on: woolly cupgrass (Eriochloa villosa); experiment: Test C pre-/postemergence: woolly cupgrass
Method in brief: as §2

[7] = tested on: canarygrass (Phalaris minor); experiment: Test C postemergence: canarygrass
Method in brief: as §1

[8] = tested on: common (oilseed) sunflower (Helianthus annuus); experiment: Test C pre-/postemergence: sunflower; conditions: Preemergence
Method in brief: as §2

[9] = tested on: bermudagrass (Cynodon dactylon); experiment: Test C pre-/postemergence: bermudagrass
Method in brief: as §2

[10] = tested on: nightshade (eastern black nightshade, Solanum ptycanthum); experiment: Test C pre-/postemergence: nightshade; conditions: Preemergence
Method in brief: as §2

[11] = tested on: surinam grass (Brachiaria decumbens); experiment: Test C pre-/postemergence: surinam grass
Method in brief: as §2

[12] = 31 g ai/ha, scale 0 to 100 (0 no effect, 100 complete control)
[13] = 62 g ai/ha, scale 0 to 100 (0 no effect, 100 complete control)
[14] = 125 g ai/ha, scale 0 to 100, 0 no effect, 100 complete control
[15] = Postemergence, 31 g ai/ha, scale 0 to 100 (0 no effect, 100 complete control)
[16] = Postemergence, 62 g ai/ha, scale 0 to 100 (0 no effect, 100 complete control)
[17] = Postemergence, 125 g ai/ha, scale 0 to 100, 0 no effect, 100 complete control
[18] = Postemergence, 250 g ai/ha, scale 0 to 100
[19] = Preemergence, 31 g ai/ha, scale of 0 to 100, 0 is no effect, 100 is complete control
[20] = Preemergence, 62 g ai/ha, scale of 0 to 100, 0 is no effect, 100 is complete control
[21] = Preemergence, 125 g ai/ha, scale 0 to 100, 0 no effect, 100 complete control
[22] = Preemergence, 250 g ai/ha, scale 0 to 100, 0 no effect, 100 complete control
[23] = 31 g ai/ha, scale of 0 to 100, 0 is no effect, 100 is complete control
[24] = 62 g ai/ha, scale of 0 to 100, 0 is no effect, 100 is complete control
[25] = 250 g ai/ha, scale 0 to 100, 0 no effect, 100 complete control

COc1nn(-c2ccc(C(F)(F)F)cc2)nc1Cc1ccnc(C(F)F)c1 [Compound 138]
80: Plant response rating, Windgrass ([1]; 250 g ai/ha, scale 0 to 100) | Plant response rating, Goosegrass [2, 18] | Plant response rating, Bromegrass, Downy [4, 22] | Plant response rating, Surinam Grass [11, 20]
25: Plant response rating, Goosegrass [2, 16]
85: Plant response rating, Foxtail, Green [5, 16] | Plant response rating, Cupgrass, Woolly [6, 18] | Plant response rating, Surinam Grass [11, 21]
20: Plant response rating, Bermudagrass [9, 15]
30: Plant response rating, Bromegrass, Downy [4, 20] | Plant response rating, Canarygrass [7, 12] | Plant response rating, Sunflower [8, 14] | Plant response rating, Sunflower [8, 25]
70: Plant response rating, Canarygrass [7, 14]
60: Plant response rating, Bromegrass, Downy [4, 21] | Plant response rating, Cupgrass, Woolly [6, 19]
45: Plant response rating, Bromegrass, Downy [4, 16] | Plant response rating, Bermudagrass [9, 16] | Plant response rating, Surinam Grass [11, 15]
40: Plant response rating, Bromegrass, Downy [4, 15]
90: Plant response rating, Foxtail, Green [5, 17] | Plant response rating, Foxtail, Green [5, 18] | Plant response rating, Foxtail, Green [5, 19] | Plant response rating, Cupgrass, Woolly [6, 20] | Plant response rating, Canarygrass ([7]; 250 g ai/ha, scale 0 to 100) | Plant response rating, Nightshade [10, 23]
50: Plant response rating, Windgrass [1, 12] | Plant response rating, Windgrass [1, 13] | Plant response rating, Goosegrass [2, 17] | Plant response rating, Bromegrass, Downy [4, 17] | Plant response rating, Cupgrass, Woolly [6, 15] | Plant response rating, Surinam Grass [11, 16]
5: Plant response rating, Goosegrass [2, 15] | Plant response rating, Sunflower [8, 23]
35: Plant response rating, Foxtail, Green [5, 15]
100: Plant response rating, Goosegrass [2, 19] | Plant response rating, Goosegrass [2, 20] | Plant response rating, Goosegrass [2, 21] | Plant response rating, Goosegrass [2, 22] | Plant response rating, Deadnettle [3, 13] | Plant response rating, Deadnettle [3, 14] | Plant response rating, Deadnettle ([3]; 250 g ai/ha, scale 0 to 100) | Plant response rating, Cupgrass, Woolly [6, 22] | Plant response rating, Bermudagrass [9, 19] | Plant response rating, Bermudagrass [9, 20] | Plant response rating, Bermudagrass [9, 21] | Plant response rating, Bermudagrass [9, 22] | Plant response rating, Surinam Grass [11, 22]
98: Plant response rating, Deadnettle [3, 12] | Plant response rating, Nightshade [10, 14] | Plant response rating, Nightshade [10, 25]
95: Plant response rating, Foxtail, Green [5, 20] | Plant response rating, Foxtail, Green [5, 21] | Plant response rating, Foxtail, Green [5, 22] | Plant response rating, Cupgrass, Woolly [6, 21] | Plant response rating, Bermudagrass [9, 18] | Plant response rating, Nightshade [10, 24]
55: Plant response rating, Windgrass [1, 14] | Plant response rating, Cupgrass, Woolly [6, 16] | Plant response rating, Cupgrass, Woolly [6, 17] | Plant response rating, Canarygrass [7, 13] | Plant response rating, Surinam Grass [11, 19]
65: Plant response rating, Bromegrass, Downy [4, 18] | Plant response rating, Surinam Grass [11, 17]
75: Plant response rating, Bermudagrass [9, 17]
10: Plant response rating, Bromegrass, Downy [4, 19] | Plant response rating, Sunflower [8, 24]

COc1nn(-c2cccc(F)c2)nc1Cc1ccnc(C(F)(F)F)c1 [Compound 139]
50: Plant response rating, Windgrass [1, 12] | Plant response rating, Cupgrass, Woolly [6, 17]
40: Plant response rating, Goosegrass [2, 16] | Plant response rating, Cupgrass, Woolly [6, 20] | Plant response rating, Canarygrass [7, 12] | Plant response rating, Bermudagrass [9, 16] | Plant response rating, Surinam Grass [11, 18]
80: Plant response rating, Windgrass [1, 14] | Plant response rating, Goosegrass [2, 18] | Plant response rating, Canarygrass ([7]; 250 g ai/ha, scale 0 to 100) | Plant response rating, Bermudagrass [9, 18]
60: Plant response rating, Goosegrass [2, 17] | Plant response rating, Canarygrass [7, 14]
65: Plant response rating, Surinam Grass [11, 20]
5: Plant response rating, Bromegrass, Downy [4, 15] | Plant response rating, Sunflower [8, 14]
95: Plant response rating, Deadnettle [3, 12] | Plant response rating, Deadnettle [3, 13] | Plant response rating, Foxtail, Green [5, 15] | Plant response rating, Foxtail, Green [5, 16]
30: Plant response rating, Bromegrass, Downy [4, 18] | Plant response rating, Cupgrass, Woolly [6, 16] | Plant response rating, Cupgrass, Woolly [6, 19]
20: Plant response rating, Bromegrass, Downy [4, 20]
10: Plant response rating, Bromegrass, Downy [4, 16] | Plant response rating, Sunflower [8, 25] | Plant response rating, Surinam Grass [11, 15]
15: Plant response rating, Goosegrass [2, 15] | Plant response rating, Bromegrass, Downy [4, 17] | Plant response rating, Cupgrass, Woolly [6, 15] | Plant response rating, Surinam Grass [11, 19]
35: Plant response rating, Bermudagrass [9, 15] | Plant response rating, Surinam Grass [11, 16] | Plant response rating, Surinam Grass [11, 17]
100: Plant response rating, Goosegrass [2, 20] | Plant response rating, Goosegrass [2, 21] | Plant response rating, Goosegrass [2, 22] | Plant response rating, Deadnettle ([3]; 250 g ai/ha, scale 0 to 100) | Plant response rating, Foxtail, Green [5, 17] | Plant response rating, Foxtail, Green [5, 18] | Plant response rating, Bermudagrass [9, 20] | Plant response rating, Bermudagrass [9, 21] | Plant response rating, Bermudagrass [9, 22]
0: Plant response rating, Bromegrass, Downy [4, 19] | Plant response rating, Sunflower [8, 23] | Plant response rating, Sunflower [8, 24]
85: Plant response rating, Bromegrass, Downy [4, 22] | Plant response rating, Nightshade [10, 14] | Plant response rating, Surinam Grass [11, 21]
98: Plant response rating, Goosegrass [2, 19] | Plant response rating, Deadnettle [3, 14] | Plant response rating, Bermudagrass [9, 19] | Plant response rating, Nightshade [10, 25] | Plant response rating, Surinam Grass [11, 22]
45: Plant response rating, Canarygrass [7, 13]
90: Plant response rating, Foxtail, Green [5, 19] | Plant response rating, Foxtail, Green [5, 20] | Plant response rating, Foxtail, Green [5, 22] | Plant response rating, Cupgrass, Woolly [6, 22]
70: Plant response rating, Windgrass [1, 13]
75: Plant response rating, Cupgrass, Woolly [6, 21] | Plant response rating, Nightshade [10, 24]
55: Plant response rating, Bermudagrass [9, 17]

Cc1nn(-c2ccc(C(F)(F)F)c(F)c2)nc1Oc1ccnc(C(F)(F)F)c1 [Compound 148]
0: Plant response rating, Sunflower [8, 23] | Plant response rating, Sunflower [8, 24]
80: Plant response rating, Windgrass [1, 13] | Plant response rating, Bromegrass, Downy [4, 22] | Plant response rating, Foxtail, Green [5, 15]
95: Plant response rating, Goosegrass [2, 20] | Plant response rating, Deadnettle [3, 12] | Plant response rating, Deadnettle [3, 13] | Plant response rating, Foxtail, Green [5, 19] | Plant response rating, Foxtail, Green [5, 20] | Plant response rating, Foxtail, Green [5, 21] | Plant response rating, Foxtail, Green [5, 22] | Plant response rating, Cupgrass, Woolly [6, 21] | Plant response rating, Canarygrass [7, 14] | Plant response rating, Canarygrass ([7]; 250 g ai/ha, scale 0 to 100)
10: Plant response rating, Sunflower [8, 14] | Plant response rating, Sunflower [8, 25] | Plant response rating, Bermudagrass [9, 15]
15: Plant response rating, Goosegrass [2, 16]
30: Plant response rating, Bermudagrass [9, 16] | Plant response rating, Surinam Grass [11, 18]
50: Plant response rating, Bromegrass, Downy [4, 21] | Plant response rating, Cupgrass, Woolly [6, 19] | Plant response rating, Bermudagrass [9, 17]
5: Plant response rating, Bromegrass, Downy [4, 19]
98: Plant response rating, Windgrass [1, 14] | Plant response rating, Goosegrass [2, 21] | Plant response rating, Foxtail, Green [5, 16] | Plant response rating, Cupgrass, Woolly [6, 22] | Plant response rating, Bermudagrass [9, 19]
85: Plant response rating, Nightshade [10, 14] | Plant response rating, Nightshade [10, 25]
40: Plant response rating, Goosegrass [2, 18] | Plant response rating, Bromegrass, Downy [4, 20] | Plant response rating, Canarygrass [7, 12]
65: Plant response rating, Bromegrass, Downy [4, 18] | Plant response rating, Cupgrass, Woolly [6, 17]
60: Plant response rating, Windgrass [1, 12] | Plant response rating, Bromegrass, Downy [4, 17] | Plant response rating, Canarygrass [7, 13] | Plant response rating, Nightshade [10, 24] | Plant response rating, Surinam Grass [11, 19]
45: Plant response rating, Bromegrass, Downy [4, 15]
90: Plant response rating, Goosegrass [2, 19] | Plant response rating, Cupgrass, Woolly [6, 20]
25: Plant response rating, Goosegrass [2, 17] | Plant response rating, Nightshade [10, 23] | Plant response rating, Surinam Grass [11, 17]
100: Plant response rating, Windgrass ([1]; 250 g ai/ha, scale 0 to 100) | Plant response rating, Goosegrass [2, 22] | Plant response rating, Deadnettle [3, 14] | Plant response rating, Deadnettle ([3]; 250 g ai/ha, scale 0 to 100) | Plant response rating, Foxtail, Green [5, 17] | Plant response rating, Foxtail, Green [5, 18] | Plant response rating, Bermudagrass [9, 20] | Plant response rating, Bermudagrass [9, 21] | Plant response rating, Bermudagrass [9, 22] | Plant response rating, Surinam Grass [11, 22]
75: Plant response rating, Cupgrass, Woolly [6, 18] | Plant response rating, Surinam Grass [11, 20] | Plant response rating, Surinam Grass [11, 21]
55: Plant response rating, Bromegrass, Downy [4, 16] | Plant response rating, Cupgrass, Woolly [6, 15] | Plant response rating, Cupgrass, Woolly [6, 16] | Plant response rating, Bermudagrass [9, 18]
20: Plant response rating, Surinam Grass [11, 15] | Plant response rating, Surinam Grass [11, 16]
